# Test results taken from US12077555B2, “STAT degraders and uses thereof” (Kymera Therapeutics, Inc., priority 2019, dated 2024).
# Target: STAT3 (Homo sapiens, UniProt P40763)
# Assay: STAT3 HiBiT degradation assay in transfected A549 cells
# Type: cell-based
# Parameters: expressed in transfected cells; host or cells: A549
# Settings: A549, 24 h; read-out: STAT3 HiBiT A549 degradation 24 h: Average external-Abs DC50
# Procedure: Compound preparation and Cell seeding: The transfected A549 cells were harvested from dish into cell culture medium and cell numbers counted. Cells were diluted with culture medium to the desired density and 30 μL of cell suspension (about 2000 cells/well) were added into each well of a 384-well cell culture plate as designated and transferred into 37° C. 5% CO2 incubator for 24 h. Compounds were dissolved to 10 mM stock solution and 12 μL of the stock solution was transferred to a 384 LDV-plate. 3 fold, 10-point dilution was performed by transferring 4 μL compound into 8 μL DMSO using a TECAN (EVO200) liquid handler. 30 μL of diluted compound from compound source plate was transferred into the cell plate as designated by using Echo550 and transferred into 37° C. 5% CO2 incubator for 24 h.
# Detection: Plates were removed from incubators and equilibrated at room temperature for 15 minutes. Nano-Glo Hibit Lytic Detection reagent (Promega Cat #N3040) was thawed and equilibrated to room temperature before the experiment. 30 μL of Nano-Glo Hibit Lytic Detection reagent was added into each well to be detected. The plates were held at room temperature for 10 min followed by reading on EnSpire.
# Data analysis: The remaining activity was calculated following the formula: Remaining Activity (%)=100%×(Lumsample−LumNC)/(LumPC−LumNC). Calculate the IC50 by fitting the curve using Xlfit (v5.3.1.3), equation 201: fit=(A+((B−A)/(1+((x/C)^D)))); A: Bottom; B: Top; C: IC50; and D: Slope.
# The letter codes for STAT3 DC50 include: A (<0.01 μM), B (0.01-0.1 μM), C (0.1-1.0 μM), and D (>1.0 μM).
# Sequence of STAT3 (P40763 whole entry): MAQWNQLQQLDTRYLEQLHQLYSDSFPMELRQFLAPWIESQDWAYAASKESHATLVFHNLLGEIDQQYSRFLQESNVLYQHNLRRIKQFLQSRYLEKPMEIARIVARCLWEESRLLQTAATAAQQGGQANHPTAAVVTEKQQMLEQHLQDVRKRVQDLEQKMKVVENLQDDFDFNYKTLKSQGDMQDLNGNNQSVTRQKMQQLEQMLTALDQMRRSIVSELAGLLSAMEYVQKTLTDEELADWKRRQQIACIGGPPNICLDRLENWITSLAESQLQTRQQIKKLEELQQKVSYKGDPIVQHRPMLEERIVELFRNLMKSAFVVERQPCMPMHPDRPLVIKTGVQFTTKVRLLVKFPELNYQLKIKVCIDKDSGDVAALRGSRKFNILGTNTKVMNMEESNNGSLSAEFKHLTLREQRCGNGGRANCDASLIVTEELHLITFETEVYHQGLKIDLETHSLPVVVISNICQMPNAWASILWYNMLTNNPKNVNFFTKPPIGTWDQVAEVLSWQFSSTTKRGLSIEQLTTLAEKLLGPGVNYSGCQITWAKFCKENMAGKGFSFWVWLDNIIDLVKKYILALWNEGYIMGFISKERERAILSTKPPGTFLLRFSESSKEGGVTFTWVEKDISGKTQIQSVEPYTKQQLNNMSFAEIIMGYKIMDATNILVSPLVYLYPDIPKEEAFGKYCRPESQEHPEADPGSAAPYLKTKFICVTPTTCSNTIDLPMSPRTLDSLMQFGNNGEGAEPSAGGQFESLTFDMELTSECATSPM
row,Structure (SMILES),DC50 [nM]
1,"Cc1ncsc1-c1ccc(CNC(=O)[C@@H]2C[C@@H](O)CN2C(=O)[C@@H](NC(=O)CCc2cccc3cc(CO[C@H](C)[C@H](CCC(N)=O)NC(=O)[C@@H]4Cc5cccc6c5N4C(=O)[C@@H](NC(=O)c4cc5cc(C(=O)P(=O)(O)O)ccc5[nH]4)CC6)ccc23)C(C)(C)C)cc1 [Compound I-136, diammonium 2-[[(2S,11S)-2-[[(3S,4R)-1-carbamoyl-4-[[5-(2-[[(2S)-1-[(2S,4R)-4-hydroxy-2-([[4-(4-methyl-1,3-thiazol-5-yl)phenyl]methyl]carbamoyl)pyrrolidin-1-yl]-3,3-dimethyl-1-oxobutan-2-yl]carbamoyl]ethyl)naphthalen-2-yl]methoxy]pentan-3-yl]carbamoyl]-12-oxo-1-azatricyclo[6.4.1.0^[4,13]]trideca-4(13),5,7-trien-11-yl]carbamoyl]-1H-indole-5-carbonylphosphonate]",> 1000
2,Cc1ncsc1-c1ccc(CNC(=O)[C@@H]2C[C@@H](O)CN2C(=O)[C@@H](NC(=O)CCCc2ccc(CNC(=O)[C@H](CCC(N)=O)NC(=O)[C@@H]3Cc4cccc5c4N3C(=O)[C@@H](NC(=O)c3cc4cc(C(=O)P(=O)(O)O)ccc4[nH]3)CC5)cc2)C(C)(C)C)cc1 [Compound I-138],> 1000
3,Cc1ncsc1-c1ccc(CNC(=O)[C@@H]2C[C@@H](O)CN2C(=O)C(NC(=O)CCCCc2ccc(CNC(=O)[C@H](CCC(N)=O)NC(=O)[C@@H]3Cc4cccc5c4N3C(=O)[C@@H](NC(=O)c3cc4cc(C(=O)P(=O)(O)O)ccc4[nH]3)CC5)cc2)C(C)(C)C)cc1 (stereo partly shown) [Compound I-139],> 1000
4,Cc1ncsc1-c1ccc(CNC(=O)[C@@H]2C[C@@H](O)CN2C(=O)[C@@H](NC(=O)CCCCCc2ccc(CNC(=O)[C@H](CCC(N)=O)NC(=O)[C@@H]3Cc4cccc5c4N3C(=O)[C@@H](NC(=O)c3cc4cc(C(=O)P(=O)(O)O)ccc4[nH]3)CC5)cc2)C(C)(C)C)cc1 [Compound I-140],> 1000
5,"Cc1ncsc1-c1ccc([C@H](C)NC(=O)[C@@H]2C[C@@H](O)CN2C(=O)[C@@H](NC(=O)CCCCc2ccc(COC[C@H](CCC(N)=O)NC(=O)[C@@H]3Cc4cccc5c4N3C(=O)[C@@H](NC(=O)c3cc4cc(C(=O)P(=O)(O)O)ccc4[nH]3)CC5)cc2)C(C)(C)C)cc1 [Compound I-141, diammonium 2-[[(2S,11S)-2-[[(2S)-4-carbamoyl-1-[[4-(4-[[(2S)-1-[(2S,4R)-4-hydroxy-2-[[(1S)-1-[4-(4-methyl-1,3-thiazol-5-yl)phenyl]ethyl]carbamoyl]pyrrolidin-l-yl]-3,3-dimethyl-1-oxobutan-2-yl]carbamoyl]butyl)phenyl]methoxy]butan-2-yl]carbamoyl]-12-oxo-1-azatricyclo[6.4.1.0^[4,13]]trideca-4(13),5,7-trien-11-yl]carbamoyl]-1H-indole-5-carbonylphosphonate]",10 to 100
6,C/C(=C\C(=O)N[C@H]1CCc2cccc3c2N(C1=O)[C@H](C(=O)N[C@@H](CCC(N)=O)[C@@H](C)OCc1ccc(CCCCC(=O)N[C@H](C(=O)N2C[C@H](O)C[C@H]2C(=O)N[C@@H](C)c2ccc(-c4scnc4C)cc2)C(C)(C)C)cc1)C3)c1cccc(C(F)(F)P(=O)(O)O)c1 [Compound I-142],> 1000

# Same assay, conditions: read-out: STAT3 HiBiT A549 degradation 24 h: Average external-Abs DC50; A549, 24 h
row,Structure (SMILES),DC50 [nM]
1,"Cc1ncsc1-c1ccc(CNC(=O)[C@@H]2C[C@@H](O)CN2C(=O)[C@@H](NC(=O)CCCCc2ccc(CO[C@H](C)[C@H](CCC(N)=O)NC(=O)[C@@H]3[C@@H]4C[C@@H]4CN3C(=O)[C@H](CC(C)C)NC(=O)c3cc4cc(C(=O)P(=O)(O)O)ccc4[nH]3)cc2)C(C)(C)C)cc1 [Compound I-137, diammonium 2-[[(2S)-1-[(1R,2S,5S)-2-[[(3S,4R)-1-carbamoyl-4-[[4-(4-[[(2S)-1-[(2S,4R)-4-hydroxy-2-([[4-(4-methyl-1,3-thiazol-5-yl)phenyl]methyl]carbamoyl)pyrrolidin-1-yl]-3,3-dimethyl-1-oxobutan-2-yl]carbamoyl]butyl)phenyl]methoxy]pentan-3-yl]carbamoyl]-3-azabicyclo[3.1.0]hexan-3-yl]-4-methyl-1-oxopentan-2-yl]carbamoyl]-1H-indole-5-carbonylphosphonate]",10 to 100
